Test results taken from ChEMBL document CHEMBL2073960, “Cytotoxic and multidrug resistance reversal activity of a vegetable, 'Anastasia Red', a variety of sweet pepper” (Phytother Res, 2003).

Molecular target: ATP-dependent translocase ABCB1 (Homo sapiens, UniProt P08183)
Assay: TP_TRANSPORTER: increase in Rhodamine 123 intracellular accumulation in MDR1 transfected L-5178 mouse T-cell lymphoma cells
Type: functional, cell-based

ATP-dependent translocase ABCB1, sequence (P08183 whole entry): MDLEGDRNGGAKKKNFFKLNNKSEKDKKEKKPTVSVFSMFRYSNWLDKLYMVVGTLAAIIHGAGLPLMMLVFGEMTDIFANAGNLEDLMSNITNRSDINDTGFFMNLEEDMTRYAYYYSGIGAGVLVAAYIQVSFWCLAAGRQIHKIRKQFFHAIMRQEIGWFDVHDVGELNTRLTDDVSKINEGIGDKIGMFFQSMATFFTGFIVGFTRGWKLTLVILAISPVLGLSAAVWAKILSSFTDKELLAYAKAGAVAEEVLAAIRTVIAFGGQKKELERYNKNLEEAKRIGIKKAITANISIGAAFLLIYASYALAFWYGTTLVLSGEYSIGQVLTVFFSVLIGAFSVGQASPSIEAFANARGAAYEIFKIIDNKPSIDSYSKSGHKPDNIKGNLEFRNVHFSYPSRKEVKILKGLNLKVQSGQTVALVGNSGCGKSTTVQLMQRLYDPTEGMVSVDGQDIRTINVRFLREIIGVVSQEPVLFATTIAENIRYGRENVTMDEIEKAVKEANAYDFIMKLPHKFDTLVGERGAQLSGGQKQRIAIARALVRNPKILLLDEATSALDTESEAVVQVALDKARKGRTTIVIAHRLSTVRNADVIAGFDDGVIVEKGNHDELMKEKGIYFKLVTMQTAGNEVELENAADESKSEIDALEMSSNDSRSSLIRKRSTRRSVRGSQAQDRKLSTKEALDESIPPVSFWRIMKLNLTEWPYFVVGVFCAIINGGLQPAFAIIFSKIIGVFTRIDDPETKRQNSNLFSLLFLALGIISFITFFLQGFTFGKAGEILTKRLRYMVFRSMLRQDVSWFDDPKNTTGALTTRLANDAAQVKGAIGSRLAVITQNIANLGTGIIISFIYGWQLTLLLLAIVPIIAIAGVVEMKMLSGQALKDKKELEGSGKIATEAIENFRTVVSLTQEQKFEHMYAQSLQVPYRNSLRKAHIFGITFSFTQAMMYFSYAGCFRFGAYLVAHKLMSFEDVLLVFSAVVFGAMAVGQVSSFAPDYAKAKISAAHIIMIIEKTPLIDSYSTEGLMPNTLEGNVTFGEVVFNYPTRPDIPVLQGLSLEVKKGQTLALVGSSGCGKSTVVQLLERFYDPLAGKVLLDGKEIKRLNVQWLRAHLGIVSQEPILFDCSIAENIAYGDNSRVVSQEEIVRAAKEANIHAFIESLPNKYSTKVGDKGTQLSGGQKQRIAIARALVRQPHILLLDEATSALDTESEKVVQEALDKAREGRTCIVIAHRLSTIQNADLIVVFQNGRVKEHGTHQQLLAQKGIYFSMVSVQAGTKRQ

ANASTASIA RED EXTRACTS
Activity: inhibitor [+]
